Assay [1] deals with non-small cell lung cancer cell line H460. The experiment in a line: H460 proliferation assay in the presence of 3 uM ASP9521 (AKR1C3 specific inhibitor). The class given is cell-based, human. The note with it: H460 cells, CellTiter-Glo, 72 hours, in the presence of 3 uM ASP9521 added 4 hours prior to compounds; read-out: CTG H460: Avg IC50 (nM) [Assay Condition: ASP9521]. An outline of the steps: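 H460 cells pre-incubated 24 h, then exposed to compounds for 72 h at 37 °C, 5% CO2. Viability read by CellTiter-Glo. ASP9521 (3 uM, AKR1C3 inhibitor) added 4 h before compounds.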

For assay [2] the test system is unchanged. The experiment in a line: In vitro human cancer cell line cytotoxicity (proliferation) assay in H460, CellTiter-Glo, 72 hours. The class given is cell-based. The note with it: H460 cells, DMSO condition (no AKR1C3 inhibitor), read-out: CTG H460: Avg IC50 (nM) [Assay Condition: DMSO]. An outline of the steps: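 H460 cells were seeded at 3×10^3 per well and grown 24 h at 37 °C, 5% CO2 before compound addition from 10 mM DMSO stocks. After 72 h further incubation, viability was measured by CellTiter-Glo, and IC50 values in nM were derived from the proliferation data.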

SMILES strings stand for the structures.

As for `O=[N+]([O-])c1ccc2c(c1Oc1ccc(F)c(-c3ccccn3)c1)CC[C@@H]2OP(=O)(N1CC1)N1CC1` [Example 337], the 50% inhibitory concentration (IC50) – broadly, the point on the concentration scale where inhibition reaches its midpoint – was 5800 nM in assay [1] and 10 to 50 nM in assay [2].
The like results for `CSc1cc(Oc2c([N+](=O)[O-])ccc3c2CCC3OP(=O)(N2CC2)N2CC2)ccc1F` (centres unmarked) [Example 507] were, in that order, 952 nM and < 10 nM.
Turning to `O=[N+]([O-])c1ccc2c(c1Oc1cccc(-n3ccc(F)n3)c1)CC[C@H]2OP(=O)(N1CC1)N1CC1` [Example 445], the IC50 in assay [1] is 357 nM; in assay [2] (Homo sapiens, NCI-H460, 72 h), < 10 nM.
With `O=[N+]([O-])c1cc2c(cc1Oc1ccc(-c3ccc(Cl)cc3)cc1)C(OP(=O)(N1CC1)N1CC1)CC2` (centres unmarked) [Example 182], the IC50 in assay [1] is > 10000 nM; in assay [2] it was ≥ 100 nM.
In the case of `O=[N+]([O-])c1ccc2c(c1Oc1ccc(-c3ncccn3)cc1)CC[C@H]2OP(=O)(N1CC1)N1CC1` [Example 284], the IC50 in assay [1] was 1150 nM; in assay [2], < 10 nM.
On to `O=[N+]([O-])c1ccc2c(c1Oc1ccc(O)c(-c3ccc(F)cn3)c1)CCC2OP(=O)(N1CC1)N1CC1` (centres unmarked) [Example 334], for which the 50% inhibitory concentration (IC50) in assay [1] was 824 nM; in assay [2] it was < 10 nM.
Taken in the same sequence, the figures for `C[C@@H](OP(=O)(N1CC1)N1CC1)c1cc2cc(Oc3ccc4c(c3)CN(C)C4=O)c([N+](=O)[O-])cc2o1` [Example 564] were 2690 nM and 10 to 50 nM.
Consider `O=[N+]([O-])c1ccc2c(c1Oc1cccc(-c3nncs3)c1)CC[C@H]2OP(=O)(N1CC1)N1CC1` [Example 352], for which the IC50 in assay [1] was 268 nM; in assay [2] (Homo sapiens, NCI-H460, 72 h), < 10 nM.
With `O=[N+]([O-])c1ccc2c(c1Oc1ccc(-c3ccncc3)cc1)CCC2OP(=O)(N1CC1)N1CC1` (centres unmarked) [Example 63], the IC50 is 7430 nM in assay [1] and 10 to 50 nM in assay [2].
For the compound `O=C1c2cc(Oc3cc4c(cc3[N+](=O)[O-])OCCC4OP(=O)(N3CC3)N3CC3)ccc2CN1C1CC1` (single isomer, unassigned) [Example 203], the concentration for half-maximal inhibition (IC50) in assay [1] is 959 nM; in assay [2] (Homo sapiens, NCI-H460, 72 h), < 10 nM.
For `CSc1ccc(Oc2c([N+](=O)[O-])ccc3c2CCC3OP(=O)(N2CC2)N2CC2)cc1` (racemic) [Example 461], the values for the concentration for half-maximal inhibition (IC50) in assay [1] and in assay [2] were 547 nM and < 10 nM, respectively.
With `CN1CCc2ccc(Oc3cc4c(cc3[N+](=O)[O-])OCCC4OP(=O)(N3CC3)N3CC3)cc2C1=O` (centres unmarked) [Example 200], the IC50 is 434 nM in assay [1] and 10 to 50 nM in assay [2] (Homo sapiens, NCI-H460, 72 h).
For `O=[N+]([O-])c1cc2c(cc1Oc1ccc(-c3cccnc3)cc1)C(OP(=O)(N1CC1)N1CC1)CC2` (centres unmarked) [Example 515], the IC50 in assay [1] was 7150 nM; in assay [2] it was 10 to 50 nM.
As to `C[C@@H](OP(=O)(N1CC1)N1CC1)c1cc2cc(Oc3cccc(C4CC4)c3)c([N+](=O)[O-])cc2o1` [Example 561], the IC50 in assay [1] was 4230 nM; in assay [2] it was 10 to 50 nM.
In the case of `CC(OP(=O)(N1CC1C)N1CC1C)c1ccc([N+](=O)[O-])c(Oc2cccc(C(=O)N(C)C)c2)c1` (centres unmarked) [Example 205], the IC50 in assay [1] was 184 nM; in assay [2] (Homo sapiens, NCI-H460, 72 h) it was < 10 nM.
As for `O=C(NC1CC1)c1ccc(Oc2c([N+](=O)[O-])ccc3c2CCC3OP(=O)(N2CC2)N2CC2)cc1` (centres unmarked) [Example 73], the figures for the concentration for half-maximal inhibition (IC50) in assay [1] and in assay [2] were 943 nM and < 10 nM, respectively.
As to `O=C(c1cccc(Oc2c([N+](=O)[O-])ccc3c2CCC3OP(=O)(N2CC2)N2CC2)c1)N1C[C@H]2CC[C@@H](C1)O2` (some centres unmarked) [Example 249], the half-maximal inhibitory concentration (IC50) was 1340 nM in assay [1] and < 10 nM in assay [2] (Homo sapiens, NCI-H460, 72 h).
Take `Cn1nccc1-c1cccc(Oc2c([N+](=O)[O-])ccc3c2CCC3OP(=O)(N2CC2)N2CC2)c1` (centres unmarked) [Example 366]: the IC50 in assay [1] is 636 nM; in assay [2], < 10 nM.
On to `O=[N+]([O-])c1cc2c(cc1Oc1ccc(-c3ccccn3)cc1)C(OP(=O)(N1CC1)N1CC1)CC2` (single isomer, unassigned) [Example 188], for which the IC50 in assay [1] is 2070 nM; in assay [2] (Homo sapiens, NCI-H460, 72 h) it was < 10 nM.
In the case of `Cc1cc2cc(Oc3c([N+](=O)[O-])ccc4c3CCC4OP(=O)(N3CC3)N3CC3)ccc2n1C` (centres unmarked) [Example 387], the 50% inhibitory concentration (IC50) in assay [1] is 1860 nM; in assay [2] (Homo sapiens, NCI-H460, 72 h), < 10 nM.
For the compound `O=[N+]([O-])c1ccc2c(c1Oc1ccc(-c3cnn(C4CC4)c3)cc1)CCC2OP(=O)(N1CC1)N1CC1` (centres unmarked) [Example 79], the results for the IC50 in assay [1] and in assay [2] were 1610 nM and 10 to 50 nM, respectively.
As to `CN(C)C(=O)c1ccc(Oc2cc3c(cc2[N+](=O)[O-])CCC3OP(=O)(N2CC2)N2CC2)cc1` (single isomer, unassigned) [Example 140], the IC50 in assay [1] is 436 nM; in assay [2] (Homo sapiens, NCI-H460, 72 h), < 10 nM.
On to `O=C(NC1CCC1)c1ccc(Oc2c([N+](=O)[O-])ccc3c2CC[C@H]3OP(=O)(N2CC2)N2CC2)cc1` [Example 262], for which the concentration for half-maximal inhibition (IC50) was 945 nM in assay [1] and < 10 nM in assay [2].
For `O=C(NC1CCC1)c1ccc(Oc2c([N+](=O)[O-])ccc3c2CCC3OP(=O)(N2CC2)N2CC2)cc1` (centres unmarked) [Example 53], the half-maximal inhibitory concentration (IC50) was 945 nM in assay [1] and < 10 nM in assay [2].
For `O=[N+]([O-])c1ccc2c(c1Oc1ccc(F)c(-n3cc(F)cn3)c1)CC[C@H]2OP(=O)(N1CC1)N1CC1` [Example 420], the IC50 in assay [1] was 675 nM; in assay [2] (Homo sapiens, NCI-H460, 72 h), < 10 nM.
As to `CN1Cc2cc(Oc3cc4c(cc3[N+](=O)[O-])CCC4OP(=O)(N3CC3)N3CC3)ccc2C1=O` (centres unmarked) [Example 155], the IC50 in assay [1] was 128 nM; in assay [2], < 10 nM.
Taken in the same sequence, the figures for `O=[N+]([O-])c1cc2c(cc1Oc1ccc(-c3ccc(F)cc3)c(F)c1)C(OP(=O)(N1CC1)N1CC1)CC2` (centres unmarked) [Example 514] were 993 nM and < 10 nM.
On to `O=[N+]([O-])c1ccc2c(c1Oc1cccc(OC(F)F)c1)CC[C@@H]2OP(=O)(N1CC1)N1CC1` [Example 457], for which the figures for the IC50 in assay [1] and in assay [2] were 768 nM and < 10 nM, respectively.
As to `O=[N+]([O-])c1ccc2c(c1Oc1cccc(OCC3CC3)c1)CC[C@@H]2OP(=O)(N1CC1)N1CC1` [Example 481], the IC50 was 1120 nM in assay [1] and < 10 nM in assay [2] (Homo sapiens, NCI-H460, 72 h).
For the compound `O=C(c1ccc(Oc2c([N+](=O)[O-])ccc3c2CCC3OP(=O)(N2CC2)N2CC2)cc1)N1CCOCC1` (centres unmarked) [Example 35], the concentration for half-maximal inhibition (IC50) in assay [1] was 472 nM; in assay [2], < 10 nM.
For `Cc1nc2cc(Oc3c([N+](=O)[O-])ccc4c3CC[C@H]4OP(=O)(N3CC3)N3CC3)ccc2n1C` [Example 392], the IC50 in assay [1] was 785 nM; in assay [2] (Homo sapiens, NCI-H460, 72 h), < 10 nM.
Consider `CC(OP(=O)(N1CC1)N1CC1)c1cc2cc(Oc3cccc(C(=O)N4CCC4)c3)c([N+](=O)[O-])cc2o1` (centres unmarked) [Example 549], for which the IC50 in assay [1] was 5130 nM; in assay [2], 10 to 50 nM.
Consider `O=C1COCCN1c1cccc(Oc2c([N+](=O)[O-])ccc3c2CCC3OP(=O)(N2CC2)N2CC2)c1` (centres unmarked) [Example 109], for which the concentration for half-maximal inhibition (IC50) in assay [1] was 6450 nM; in assay [2] (Homo sapiens, NCI-H460, 72 h), 10 to 50 nM.
As to `Cn1ccc2ccc(Oc3cc4c(cc3[N+](=O)[O-])CCC4OP(=O)(N3CC3)N3CC3)cc2c1=O` (centres unmarked) [Example 156], the half-inhibitory concentration (IC50) in assay [1] is 895 nM; in assay [2] (Homo sapiens, NCI-H460, 72 h) it was 10 to 50 nM.
The like results for `O=[N+]([O-])c1cc2c(cc1Oc1ccc(C3CC3)cc1)C(OP(=O)(N1CC1)N1CC1)CC2` (centres unmarked) [Example 148] were, in that order, 955 nM and < 10 nM.
`O=C(c1ccc(Oc2cc3c(cc2[N+](=O)[O-])CCC3OP(=O)(N2CC2)N2CC2)cc1)N1CCOCC1` (centres unmarked) [Example 161]: the half-inhibitory concentration (IC50) was 339 nM in assay [1] and < 10 nM in assay [2].
Turning to `O=C1CCCN1c1cccc(Oc2c([N+](=O)[O-])ccc3c2CCC3OP(=O)(N2CC2)N2CC2)c1` (centres unmarked) [Example 112], the IC50 was 243 nM in assay [1] and < 10 nM in assay [2].
Regarding `O=[N+]([O-])c1ccc2c(c1Oc1ccc(C(F)(F)F)nc1)CCC2OP(=O)(N1CC1)N1CC1` (centres unmarked) [Example 26], the IC50 is 298 nM in assay [1] and < 10 nM in assay [2].
`O=[N+]([O-])c1ccc2c(c1Oc1ccc(-c3ncccn3)cc1)CCC2OP(=O)(N1CC1)N1CC1` (racemic) [Example 282]: the IC50 in assay [1] is 1240 nM; in assay [2], < 10 nM.
Taken in the same sequence, the figures for `Cc1cccc(-c2cccc(Oc3c([N+](=O)[O-])ccc4c3CCC4OP(=O)(N3CC3)N3CC3)c2)n1` (centres unmarked) [Example 321] were 6690 nM and 10 to 50 nM.
In the case of `O=C(NC1CC1)c1cc(Oc2c([N+](=O)[O-])ccc3c2CC[C@@H]3OP(=O)(N2CC2)N2CC2)ccc1F` [Example 261], the results for the IC50 in assay [1] and in assay [2] were 5690 nM and 10 to 50 nM, respectively.
As for `Cn1cc(-c2ccc(Oc3c([N+](=O)[O-])ccc4c3CCC4OP(=O)(N3CC3)N3CC3)cc2)cn1` (single isomer, unassigned) [Example 58], the values for the IC50 in assay [1] and in assay [2] were 1010 nM and 50 to 100 nM, respectively.
As to `CC(OP(=O)(N1C[C@H]1C)N1C[C@H]1C)c1ccc([N+](=O)[O-])c(Oc2ccc(C(=O)N(C)C)cc2)c1` (some centres unmarked) [Example 215], the IC50 in assay [1] was 3780 nM; in assay [2] (Homo sapiens, NCI-H460, 72 h), < 10 nM.
`O=[N+]([O-])c1ccc2c(c1Oc1cccc(-n3ccc(F)n3)c1)CC[C@@H]2OP(=O)(N1CC1)N1CC1` [Example 444]: the IC50 in assay [1] is 192 nM; in assay [2] (Homo sapiens, NCI-H460, 72 h) it was < 10 nM.
Turning to `O=[N+]([O-])c1ccc2c(c1Oc1ccc(-c3cnn(C4CC4)c3)cc1)CCC2OP(=O)(N1CC1)N1CC1` (centres unmarked) [Example 78], the IC50 in assay [1] was 1150 nM; in assay [2] it was ≥ 100 nM.
Turning to `O=C(c1cccc(Oc2c([N+](=O)[O-])ccc3c2CCC3OP(=O)(N2CC2)N2CC2)c1)N1CC(F)(F)C1` (centres unmarked) [Example 67], the IC50 in assay [1] is 541 nM; in assay [2], < 10 nM.
